From patent publication US12162840B2, “Herbicidal compositions” (SYNGENTA PARTICIPATIONS AG, priority 2018, dated 2024)

Test system: cool season plant species
Experiment: B2 Post-emergence efficacy Test 2, cool season plant species
Format: in vivo
Conditions: 15 days after application, 0=no damage, 100=total kill
Description: Seeds of a variety of test species (see Table B1) were sown in standard soil in pots. After cultivation for 12 days (post-emergence) under controlled conditions in a glasshouse (at 24/18° C. or 20/16° C., at day/night; 16 hours light; 65% humidity), the plants were sprayed with an aqueous spray solution derived from the formulation of the technical active ingredient dissolved in IF50 (see Table B2 for composition) and adjuvant (Genapol XO80) was added to the spray solution at a rate of 0.2% v/v. [table] [table] After application, the test plants were grown in a glasshouse under controlled conditions (as above) and watered twice daily. Herbicidal activity was evaluated 15 days after application on a 0-100 scale. The results, where 0=no damage to test plant and 100=total kill of test plant are shown below in Tables 6 to 9.

Cc1nn(C)c(=O)c(-c2c(F)ccc(Cl)c2CCc2ccccc2C(F)(F)F)c1O [Compound 1.066]
Herbicidal activity (0-100 scale) ALOMY (15 g/Ha): 20
Herbicidal activity (0-100 scale) ALOMY (30 g/Ha): 50
Herbicidal activity (0-100 scale) ALOMY (60 g/Ha): 70
Herbicidal activity (0-100 scale) ALOMY (125 g/Ha): 80
Herbicidal activity (0-100 scale) ALOMY (250 g/Ha): 90
Herbicidal activity (0-100 scale) ALOMY (500 g/Ha): 90
Herbicidal activity (0-100 scale) AVEFA (15 g/Ha): 0
Herbicidal activity (0-100 scale) AVEFA (30 g/Ha): 20
Herbicidal activity (0-100 scale) AVEFA (60 g/Ha): 40
Herbicidal activity (0-100 scale) AVEFA (125 g/Ha): 90
Herbicidal activity (0-100 scale) AVEFA (250 g/Ha): 90
Herbicidal activity (0-100 scale) AVEFA (500 g/Ha): 90
Herbicidal activity (0-100 scale) BEAVA (15 g/Ha): 80
Herbicidal activity (0-100 scale) BEAVA (30 g/Ha): 80
Herbicidal activity (0-100 scale) BEAVA (60 g/Ha): 80
Herbicidal activity (0-100 scale) BEAVA (125 g/Ha): 80
Herbicidal activity (0-100 scale) BEAVA (250 g/Ha): 80
Herbicidal activity (0-100 scale) BEAVA (500 g/Ha): 90
Herbicidal activity (0-100 scale) BROTE (15 g/Ha): 0
Herbicidal activity (0-100 scale) BROTE (30 g/Ha): 20
Herbicidal activity (0-100 scale) BROTE (60 g/Ha): 60
Herbicidal activity (0-100 scale) BROTE (125 g/Ha): 70
Herbicidal activity (0-100 scale) BROTE (250 g/Ha): 80
Herbicidal activity (0-100 scale) BROTE (500 g/Ha): 90
Herbicidal activity (0-100 scale) BRSNN (15 g/Ha): 90
Herbicidal activity (0-100 scale) BRSNN (30 g/Ha): 90
Herbicidal activity (0-100 scale) BRSNN (60 g/Ha): 90
Herbicidal activity (0-100 scale) BRSNN (125 g/Ha): 90
Herbicidal activity (0-100 scale) BRSNN (250 g/Ha): 90
Herbicidal activity (0-100 scale) BRSNN (500 g/Ha): 90
Herbicidal activity (0-100 scale) CHEAL (30 g/Ha): 90
Herbicidal activity (0-100 scale) CHEAL (60 g/Ha): 90
Herbicidal activity (0-100 scale) CHEAL (125 g/Ha): 90
Herbicidal activity (0-100 scale) CHEAL (250 g/Ha): 100
Herbicidal activity (0-100 scale) CHEAL (500 g/Ha): 100
Herbicidal activity (0-100 scale) GALAP (15 g/Ha): 20
Herbicidal activity (0-100 scale) GALAP (30 g/Ha): 20
Herbicidal activity (0-100 scale) GALAP (60 g/Ha): 20
Herbicidal activity (0-100 scale) GALAP (125 g/Ha): 20
Herbicidal activity (0-100 scale) GALAP (250 g/Ha): 30
Herbicidal activity (0-100 scale) GALAP (500 g/Ha): 90
Herbicidal activity (0-100 scale) HORVW (15 g/Ha): 0
Herbicidal activity (0-100 scale) HORVW (30 g/Ha): 10
Herbicidal activity (0-100 scale) HORVW (60 g/Ha): 20
Herbicidal activity (0-100 scale) HORVW (125 g/Ha): 70
Herbicidal activity (0-100 scale) HORVW (250 g/Ha): 80
Herbicidal activity (0-100 scale) HORVW (500 g/Ha): 90
Herbicidal activity (0-100 scale) KCHSC (15 g/Ha): 0
Herbicidal activity (0-100 scale) KCHSC (30 g/Ha): 0
Herbicidal activity (0-100 scale) KCHSC (60 g/Ha): 0
Herbicidal activity (0-100 scale) KCHSC (125 g/Ha): 10
Herbicidal activity (0-100 scale) KCHSC (250 g/Ha): 20
Herbicidal activity (0-100 scale) KCHSC (500 g/Ha): 20
Herbicidal activity (0-100 scale) LOLPE (15 g/Ha): 10
Herbicidal activity (0-100 scale) LOLPE (30 g/Ha): 20
Herbicidal activity (0-100 scale) LOLPE (60 g/Ha): 80
Herbicidal activity (0-100 scale) LOLPE (125 g/Ha): 90
Herbicidal activity (0-100 scale) LOLPE (250 g/Ha): 90
Herbicidal activity (0-100 scale) LOLPE (500 g/Ha): 100
Herbicidal activity (0-100 scale) POAAN (15 g/Ha): 20
Herbicidal activity (0-100 scale) POAAN (30 g/Ha): 70
Herbicidal activity (0-100 scale) POAAN (60 g/Ha): 80
Herbicidal activity (0-100 scale) POAAN (125 g/Ha): 90
Herbicidal activity (0-100 scale) POAAN (250 g/Ha): 90
Herbicidal activity (0-100 scale) POAAN (500 g/Ha): 90
Herbicidal activity (0-100 scale) POLCO (15 g/Ha): 70
Herbicidal activity (0-100 scale) POLCO (30 g/Ha): 80
Herbicidal activity (0-100 scale) POLCO (60 g/Ha): 90
Herbicidal activity (0-100 scale) POLCO (125 g/Ha): 90
Herbicidal activity (0-100 scale) POLCO (250 g/Ha): 100
Herbicidal activity (0-100 scale) POLCO (500 g/Ha): 100
Herbicidal activity (0-100 scale) SINAR (15 g/Ha): 60
Herbicidal activity (0-100 scale) SINAR (30 g/Ha): 60
Herbicidal activity (0-100 scale) SINAR (60 g/Ha): 80
Herbicidal activity (0-100 scale) SINAR (125 g/Ha): 90
Herbicidal activity (0-100 scale) SINAR (250 g/Ha): 90
Herbicidal activity (0-100 scale) SINAR (500 g/Ha): 90
Herbicidal activity (0-100 scale) STEME (15 g/Ha): 80
Herbicidal activity (0-100 scale) STEME (30 g/Ha): 60
Herbicidal activity (0-100 scale) STEME (60 g/Ha): 90
Herbicidal activity (0-100 scale) STEME (125 g/Ha): 90
Herbicidal activity (0-100 scale) STEME (250 g/Ha): 90
Herbicidal activity (0-100 scale) STEME (500 g/Ha): 100
Herbicidal activity (0-100 scale) TRZAW (15 g/Ha): 0
Herbicidal activity (0-100 scale) TRZAW (30 g/Ha): 10
Herbicidal activity (0-100 scale) TRZAW (60 g/Ha): 40
Herbicidal activity (0-100 scale) TRZAW (125 g/Ha): 60
Herbicidal activity (0-100 scale) TRZAW (250 g/Ha): 70
Herbicidal activity (0-100 scale) TRZAW (500 g/Ha): 80
Herbicidal activity (0-100 scale) VERPE (15 g/Ha): 80
Herbicidal activity (0-100 scale) VERPE (30 g/Ha): 90
Herbicidal activity (0-100 scale) VERPE (60 g/Ha): 100
Herbicidal activity (0-100 scale) VERPE (125 g/Ha): 100
Herbicidal activity (0-100 scale) VERPE (250 g/Ha): 100
Herbicidal activity (0-100 scale) VERPE (500 g/Ha): 100
